Values joined by “and” are separate entries in the source; they are usually repeats but may differ in a detail not shown here. Equal entries are not always repeated. Inconclusive results and toxic doses are left out.

The test system of the experiment is B6C3F1 mice, B16 melanoma ip, median survival T/C. Put plainly: NCI In Vivo Anticancer Drug Screen. Data for tumor model B16 Melanoma (intraperitoneal) in B6C3F1 mice. The settings on record: endpoint: median survival time, higher = longer survival. As to the method:
The antitumor activity of compounds was measured in mice bearing transplantable tumors. Survival or tumor size were measured and the results are expressed as the measurement made in the treated group (T) divided by the measurement made in the vehicle treated control group (C). The tumor model used in this assay is B16 Melanoma (intraperitoneal) in B6C3F1 mice

Where [1] appears, read: dose: 12.5 mg/kg/injection, schedule: Q01DX009 (ip), vehicle: saline.
Where [2] appears, read: dose: 25.0 mg/kg/injection, schedule: Q01DX009 (ip), vehicle: saline.
[3] abbreviates: dose: 50.0 mg/kg/injection, schedule: Q01DX009 (ip), vehicle: saline.
[4] abbreviates: dose: 100.0 mg/kg/injection, schedule: Q01DX009 (ip), vehicle: saline.
The mark [5] stands for this setting: dose: 200.0 mg/kg/injection, schedule: Q01DX009 (ip), vehicle: saline.
Where [6] appears, read: dose: 400.0 mg/kg/injection, schedule: Q01DX009 (ip), vehicle: saline.
[7] abbreviates: dose: 3.12 mg/kg/injection, schedule: Q01DX009 (ip), vehicle: saline with Tween-80.
[8] abbreviates: dose: 50.0 mg/kg/injection, schedule: Q01DX009 (ip), vehicle: saline with Tween-80.
Where [9] appears, read: dose: 100.0 mg/kg/injection, schedule: Q01DX009 (ip), vehicle: saline with Tween-80.
Setting [10] is: dose: 0.5 mg/kg/injection, schedule: Q01DX009 (ip), vehicle: saline with Tween-80.

Consider `c1ccc([Te][Te]c2ccccc2)cc1`, for which the T/C (dose: 3.0 mg/kg/injection, schedule: Q01DX009 (ip), vehicle: saline with Tween-80) is 92 % of control and 94 % of control; the T/C (dose: 6.0 mg/kg/injection, schedule: Q01DX009 (ip), vehicle: saline with Tween-80) was 98 % of control and 100 % of control and 106 % of control; the T/C (dose: 12.0 mg/kg/injection, schedule: Q01DX009 (ip), vehicle: saline with Tween-80) is 112 % of control and 122 % of control and 98 % of control; the T/C (dose: 24.0 mg/kg/injection, schedule: Q01DX009 (ip), vehicle: saline with Tween-80) is 114 % of control and 121 % of control and 102 % of control; the T/C (dose: 48.0 mg/kg/injection, schedule: Q01DX009 (ip), vehicle: saline with Tween-80) is 113 % of control.
As for `c1cnc2ncncc2n1`, the T/C reads like this: under setting [1], 110 % of control; under setting [2], 107 % of control; under setting [3], 97 % of control; under setting [4], 91 % of control; under setting [5], 99 % of control.
As for `NCCC(=O)NC(Cc1cnc[nH]1)C(=O)O` (stereo not drawn), the T/C is 102 % of control under setting [3], 104 % of control under setting [4], 103 % of control under setting [5] and 104 % of control under setting [6].
Take `O=C1c2ccccc2CCC1Br` (stereo not drawn): the T/C is 87 % of control (dose: 1.5 mg/kg/injection, schedule: Q01DX009 (ip), vehicle: DMSO); 86 % of control and 87 % of control (dose: 3.0 mg/kg/injection, schedule: Q01DX009 (ip), vehicle: DMSO); 91 % of control (dose: 6.0 mg/kg/injection, schedule: Q01DX009 (ip), vehicle: DMSO); 94 % of control (dose: 12.0 mg/kg/injection, schedule: Q01DX009 (ip), vehicle: DMSO).
With `O=c1nc(Oc2ccccc2)nc2ncccn12`, under setting [7], the T/C is 108 % of control and 101 % of control and 102 % of control.
As for `CCOC(=O)Nc1cc2c(c(N)n1)N=C(CN(C)c1ccccc1)CN2`, the T/C (dose: 0.78 mg/kg/injection, schedule: Q01DX009 (ip), vehicle: Klucel (hydroxypropylcellulose) (HPC)) was 93 % of control; the T/C (dose: 1.56 mg/kg/injection, schedule: Q01DX009 (ip), vehicle: Klucel (hydroxypropylcellulose) (HPC)) is 116 % of control; the T/C (dose: 3.12 mg/kg/injection, schedule: Q01DX009 (ip), vehicle: Klucel (hydroxypropylcellulose) (HPC)) was 114 % of control; the T/C (dose: 6.25 mg/kg/injection, schedule: Q01DX009 (ip), vehicle: Klucel (hydroxypropylcellulose) (HPC)) was 117 % of control.
Consider `CN(C)[C@@H]1C(=O)C(C(=O)NCN2CCN(C(=N)N=C(N)N)CC2)=C(O)[C@@]2(O)C(=O)C3=C(O)c4c(O)cccc4[C@@](C)(O)[C@H]3C[C@@H]12`, for which the T/C by setting is: (dose: 0.31 mg/kg/injection, schedule: Q01DX009 (ip), vehicle: saline) 94 % of control; (dose: 0.62 mg/kg/injection, schedule: Q01DX009 (ip), vehicle: saline) 98 % of control; (dose: 1.25 mg/kg/injection, schedule: Q01DX009 (ip), vehicle: saline) 111 % of control and 103 % of control; (dose: 2.5 mg/kg/injection, schedule: Q01DX009 (ip), vehicle: saline) 90 % of control and 103 % of control; (dose: 5.0 mg/kg/injection, schedule: Q01DX009 (ip), vehicle: saline) 101 % of control and 103 % of control.
As to `CC(C)(C)OC(=O)NC(Cc1ccc(O)cc1)C(=O)ON1C(=O)CCC1=O` (stereo not drawn), the T/C was 101 % of control (dose: 100.0 mg/kg/injection, schedule: Q01DX009 (ip), vehicle: Klucel (hydroxypropylcellulose) (HPC)) and 96 % of control (dose: 200.0 mg/kg/injection, schedule: Q01DX009 (ip), vehicle: Klucel (hydroxypropylcellulose) (HPC)).
Regarding `O=C(N[C@H](CO)[C@H](O)c1ccc([N+](=O)[O-])cc1)C(Cl)Cl`, the T/C under setting [8] was 117 % of control; the T/C under setting [9] is 103 % of control; the T/C (dose: 200.0 mg/kg/injection, schedule: Q01DX009 (ip), vehicle: saline with Tween-80) was 109 % of control; the T/C (dose: 400.0 mg/kg/injection, schedule: Q01DX009 (ip), vehicle: saline with Tween-80) was 97 % of control; the T/C (dose: 800.0 mg/kg/injection, schedule: Q01DX009 (ip), vehicle: saline with Tween-80) was 100 % of control.
In the case of `CC1OC(O[C@H]2C[C@](O)(C(C)O)Cc3c(O)c4c(c(O)c32)C(=O)c2c(O)cccc2C4=O)CC(NC=O)C1O` (stereo partly drawn), the T/C runs as follows: (dose: 0.62 mg/kg/injection, schedule: Q01DX001 (ip), vehicle: water) 158 % of control; (dose: 1.25 mg/kg/injection, schedule: Q01DX001 (ip), vehicle: water) 185 % of control; (dose: 2.5 mg/kg/injection, schedule: Q01DX001 (ip), vehicle: distilled water + Tween-80) 288 % of control; (dose: 2.5 mg/kg/injection, schedule: Q01DX001 (ip), vehicle: water) 257 % of control; (dose: 5.0 mg/kg/injection, schedule: Q01DX001 (ip), vehicle: water) 170 % of control.
As for `COc1ccc(CC2C(=O)NC(C)C(=O)N(C)C3C(=O)N(C)C(Cc4ccc(O)c(c4)Oc4ccc(cc4)C3O)C(=O)NC(C)C(=O)NC(C)C(=O)N2C)cc1` (stereo not drawn), the T/C is 123 % of control (dose: 0.25 mg/kg/injection, schedule: Q01DX005 (ip), vehicle: saline with Tween-80); 89 % of control and 107 % of control (dose: 0.25 mg/kg/injection, schedule: Q01DX005 (iv), vehicle: saline with Tween-80); 98 % of control and 100 % of control (dose: 0.5 mg/kg/injection, schedule: Q01DX005 (iv), vehicle: saline with Tween-80); 174 % of control under setting [10]; 98 % of control and 99 % of control (dose: 1.0 mg/kg/injection, schedule: Q01DX005 (iv), vehicle: saline with Tween-80); 98 % of control and 104 % of control (dose: 2.0 mg/kg/injection, schedule: Q01DX005 (iv), vehicle: saline with Tween-80). Where the note is “dose: 2.0 mg/kg/injection, schedule: Q01DX009 (ip), vehicle: saline with Tween-80”, the T/C was 152 % of control.
For the compound `CC(C)n1cc2c(N)ncnc2n1`, the T/C (dose: 25.0 mg/kg/injection, schedule: Q01DX009 (ip), vehicle: saline with Tween-80) was 93 % of control; the T/C under setting [8] was 91 % of control; the T/C under setting [9] was 86 % of control.
For the compound `O=C1C=CN(C2OC(CO)C(O)C2O)C(=O)C1` (stereo not drawn), the T/C under setting [2] is 97 % of control; the T/C under setting [3] is 108 % of control; the T/C under setting [4] is 102 % of control; the T/C under setting [5] is 105 % of control; the T/C under setting [6] is 115 % of control.
Turning to `COC1C(O)CC(OC2CC(Oc3cc4cc5c(c(O)c4c(O)c3C)C(=O)[C@@H](OC3CC(OC4CC(OC6CC(C)(O)C(OC(C)=O)C(C)O6)C(O)C(C)O4)C(O)C(C)O3)[C@H]([C@H](OC)C(=O)[C@@H](O)[C@@H](C)O)C5)OC(C)C2OC(C)=O)OC1C` (stereo partly drawn), the T/C reads like this: (dose: 0.01 mg/kg/injection, schedule: Q01DX009 (ip), vehicle: Klucel (hydroxypropylcellulose) (HPC)) 165 % of control; (dose: 0.04 mg/kg/injection, schedule: Q01DX009 (ip), vehicle: Klucel (hydroxypropylcellulose) (HPC)) 151 % of control; (dose: 0.08 mg/kg/injection, schedule: Q01DX009 (ip), vehicle: Klucel (hydroxypropylcellulose) (HPC)) 196 % of control; (dose: 0.16 mg/kg/injection, schedule: Q01DX009 (ip), vehicle: Klucel (hydroxypropylcellulose) (HPC)) 171 % of control.
`C1CNCOC1`: the T/C reads like this: (dose: 6.25 mg/kg/injection, schedule: Q01DX009 (ip), vehicle: saline) 112 % of control and 95 % of control; under setting [1], 102 % of control and 104 % of control; under setting [2], 96 % of control and 101 % of control; under setting [3], 96 % of control and 103 % of control; under setting [4], 112 % of control; under setting [5], 105 % of control.
In the case of `COC(C(=O)C(O)C(C)O)C1CC2C=C3C=C(OC4CC(OC5CC(O)C(OC)C(C)O5)C(OC(C)=O)C(C)O4)C(C)C(=O)C3=C(O)C2=C(O)C1OC1CC(OC2CC(OC3CC(C)(O)C(O)C(C)O3)C(O)C(C)O2)C(O)C(C)O1` (stereo not drawn), the T/C by setting is: (dose: 0.25 mg/kg/injection, schedule: Q01DX009 (ip), vehicle: saline with Tween-80) 109 % of control; under setting [10], 120 % of control; (dose: 1.0 mg/kg/injection, schedule: Q01DX009 (ip), vehicle: saline with Tween-80) 120 % of control; (dose: 4.0 mg/kg/injection, schedule: Q01DX009 (ip), vehicle: saline with Tween-80) 178 % of control; (dose: 8.0 mg/kg/injection, schedule: Q01DX009 (ip), vehicle: saline with Tween-80) 178 % of control.
Turning to `COc1cc(O)c2c(O)c3c(c4c2c1[C@]1(C4)C(C)=CCCC1(C)C)[C@H](O)[C@@]1(O)CC(=O)C(C(N)=O)=C(O)[C@@]1(O)C3=O`, the T/C is 90 % of control (dose: 1.56 mg/kg/injection, schedule: Q01DX009 (ip), vehicle: saline with Tween-80); 106 % of control under setting [7]; 117 % of control (dose: 6.25 mg/kg/injection, schedule: Q01DX009 (ip), vehicle: saline with Tween-80).
